# Active and inactive are the calls of the source. No cut-off for these calls is given here.
# What was measured:
# [1] = molecular target: T1, N-acylethanolamine-hydrolyzing acid amidase (Homo sapiens, UniProt Q02083); experiment: Inhibition of human NAAA using N-(4-methyl coumarin)-palmitamide as fluorogenic substrate preincubated for 90 mins followed by substrate addition by fluorescence assay
# T1 sequence (Q02083 whole entry): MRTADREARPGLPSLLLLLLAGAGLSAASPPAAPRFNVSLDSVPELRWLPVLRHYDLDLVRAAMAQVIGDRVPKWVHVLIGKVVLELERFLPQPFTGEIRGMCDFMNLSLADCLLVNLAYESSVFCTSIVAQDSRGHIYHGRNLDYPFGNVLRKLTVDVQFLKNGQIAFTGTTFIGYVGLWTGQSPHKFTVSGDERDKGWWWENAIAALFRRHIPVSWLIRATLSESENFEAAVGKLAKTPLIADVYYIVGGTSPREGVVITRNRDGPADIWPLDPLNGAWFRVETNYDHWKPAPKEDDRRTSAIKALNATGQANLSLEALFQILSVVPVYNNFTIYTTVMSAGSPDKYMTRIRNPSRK
# [2] = Half life in human liver microsomes at 1 uM in presence of NADPH by LC-MS/MS analysis; format: ADME, Microsome
# [3] = Half life in rat liver microsomes at 1 uM in presence of NADPH by LC-MS/MS analysis; format: ADME, Microsome
# [4] = Half life in mouse liver microsomes at 1 uM in presence of NADPH by LC-MS/MS analysis; format: ADME, Microsome
# [5] = Drug concentration in plasma of CD-1 mouse at 2 mg/kg, iv administered as single cassette dose measured after 15 mins; format: ADME, organism-based
# [6] = Drug concentration in plasma of CD-1 mouse at 8 mg/kg, po administered as single cassette dose measured after 30 mins; format: ADME, organism-based
# [7] = molecular target: T2, Cathepsin K (Homo sapiens) (UniProt P43235); experiment: Inhibition of recombinant human Cathepsin K at 1 uM using Z-Phe-Arg-AMC as fluorogenic substrate preincubated for 120 mins followed by substrate addition by fluorescence assay
# T2 sequence (whole entry): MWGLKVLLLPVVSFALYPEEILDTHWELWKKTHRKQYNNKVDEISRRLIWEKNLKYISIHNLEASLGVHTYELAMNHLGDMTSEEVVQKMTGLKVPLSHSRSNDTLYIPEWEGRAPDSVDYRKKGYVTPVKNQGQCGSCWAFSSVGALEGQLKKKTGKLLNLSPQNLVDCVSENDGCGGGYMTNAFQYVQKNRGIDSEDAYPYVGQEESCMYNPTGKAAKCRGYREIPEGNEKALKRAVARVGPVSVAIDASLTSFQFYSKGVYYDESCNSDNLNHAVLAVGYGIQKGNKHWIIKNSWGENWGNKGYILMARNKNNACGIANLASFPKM
# [8] = Drug concentration in plasma of CD-1 mouse at 8 mg/kg, po administered as single cassette dose measured after 60 mins; format: ADME, organism-based
# [9] = Drug concentration in brain of CD-1 mouse at 2 mg/kg, iv administered as single cassette dose measured after 15 mins; format: ADME, organism-based; conditions: read-out: Ct
# [10] = molecular target: T2, Cathepsin K (Homo sapiens); experiment: Inhibition of recombinant human Cathepsin K at 100 nM using Z-Phe-Arg-AMC as fluorogenic substrate preincubated for 120 mins followed by substrate addition by fluorescence assay relative to control
# Cathepsin K = molecular target: T3, Cathepsin K (Homo sapiens, UniProt P43235); experiment: Inhibition of recombinant human Cathepsin K using Z-Phe-Arg-AMC as fluorogenic substrate preincubated for 120 mins followed by substrate addition by fluorescence assay
# T3 sequence (P43235 whole entry): T2 sequence (whole entry)
# [11] = molecular target: T4, N-acylethanolamine-hydrolyzing acid amidase (Homo sapiens) (UniProt Q02083); experiment: Inhibition of human NAAA at 1 uM using N-(4-methyl coumarin)-palmitamide as fluorogenic substrate preincubated for 90 mins followed by substrate addition by fluorescence assay relative to control
# T4 sequence (whole entry): T1 sequence (Q02083 whole entry)
# [12] = molecular target: T4, N-acylethanolamine-hydrolyzing acid amidase (Homo sapiens); experiment: Covalent inhibition of human NAAA assessed as ratio of Kinact/Ki
smiles,measurement,setting,value
COc1ccc(-c2ccc3c(c2)CCN([C@H]2C[C@@H](N=C=S)C2)C3)cc1F,IC50,[1],89 nM
COc1ccc(-c2ccc(OC(=O)N[C@H]3C[C@@H](N=C=S)C3)cc2)cc1,half-life at 1 µM,[2],6.4 min
same,half-life at 1 µM,[3],5 min
same,IC50,[1],7 nM
same,half-life at 1 µM,[4],6.2 min
COc1ccc(-c2ccc(S(=O)(=O)N[C@H]3C[C@@H](N=C=S)C3)cc2)cc1,concentration at 0.25 h,[5],164 ng/mL
same,concentration at 0.5 h,[6],20 ng/mL
same,inhibition,[7],inactive
same,concentration at 1 h,[8],20 ng/mL
same,IC50,[1],2.3 nM
same,concentration at 0.25 h,[9],1090 ng/g
COc1cnc(-c2cnc(CO[C@H]3C[C@@H](N=C=S)C3)c(F)c2)cc1F,half-life at 1 µM,[2],7.1 min
same,half-life at 1 µM,[3],7.4 min
same,inhibition,[10],43.7%
same,IC50,[1],19.5 nM
same,half-life at 1 µM,[4],6.3 min
COc1ccc(-c2ccc(CO[C@H]3CC[C@@H](N=C=S)CC3)cc2)cc1F,IC50,[1],386 nM
COc1cnc(-c2ccc(CO[C@H]3C[C@@H](N=C=S)C3)[n+]([O-])c2)cc1F,IC50,[1],23.5 nM
Fc1cc(-c2ccc(OC(F)(F)F)c(F)c2)ccc1CO[C@H]1C[C@@H](N=C=S)C1,concentration at 0.25 h,[5],178 ng/mL
same,half-life at 1 µM,[2],10.9 min
same,IC50,Cathepsin K,58.6 nM
same,concentration at 0.5 h,[6],12 ng/mL
same,half-life at 1 µM,[3],9.1 min
same,concentration at 1 h,[8],7 ng/mL
same,IC50,[1],97.1 nM
same,concentration at 0.25 h,[9],8 ng/g
same,half-life at 1 µM,[4],2.9 min
COc1ccc(-c2ccc(CO[C@H]3CCC[C@@H](N=C=S)C3)cc2)cc1F,inhibition,[11],35%
COc1ccc(-c2cc(C(=O)N[C@H]3C[C@@H](N=C=S)C3)on2)cc1,IC50,[1],91.5 nM
S=C=N[C@H]1C[C@H](OCc2ccc(-c3ccccc3)cc2)C1,IC50,[1],4300 nM
COc1ccc(-c2noc(CO[C@H]3C[C@@H](N=C=S)C3)n2)cc1,IC50,[1],493 nM
COc1ccc(-c2ccc(CN3CC(N=C=S)C3)c(F)c2)cc1F,IC50,[1],176 nM
COc1ccc(-c2ccc(CO[C@H]3C[C@@H](N=C=S)C3)nc2)nc1,IC50,[1],30.4 nM
COc1cccc(-c2ccc(CO[C@H]3C[C@@H](N=C=S)C3)cc2)c1,Ratio,[12],2.24 10^6/M/s
same,IC50,[1],22 nM
COc1ccc(-c2ccc(O[C@H]3C[C@@H](N=C=S)C3)cc2)cc1F,IC50,[1],35.9 nM
Fc1cc(-c2cccc(OCc3ccccc3)c2)ccc1CO[C@H]1C[C@@H](N=C=S)C1,IC50,[1],99.8 nM
COc1ccc(Oc2ccc(C(=O)N[C@H]3C[C@@H](N=C=S)C3)cc2)cc1,IC50,[1],1420 nM
Fc1cc(-c2ccc3c(c2)CCO3)ccc1CO[C@H]1C[C@@H](N=C=S)C1,IC50,Cathepsin K,83.5 nM
same,IC50,[1],4.5 nM
COc1ccc(N2CCC(C(=O)N[C@H]3C[C@@H](N=C=S)C3)CC2)cc1,IC50,[1],137 nM
Cn1cc(-c2ccc(CO[C@H]3C[C@@H](N=C=S)C3)c(F)c2)cn1,IC50,[1],517 nM
Fc1cc(-c2ccc3c(c2)OCO3)ccc1CO[C@H]1C[C@@H](N=C=S)C1,concentration at 0.25 h,[5],244 ng/mL
same,half-life at 1 µM,[2],3.3 min
same,concentration at 0.5 h,[6],31 ng/mL
same,half-life at 1 µM,[3],6.5 min
same,Ratio,[12],3.44 10^5/M/s
same,concentration at 1 h,[8],13 ng/mL
same,IC50,[1],8.8 nM
same,concentration at 0.25 h,[9],14 ng/g
same,half-life at 1 µM,[4],2.4 min
COc1ccc(-c2ccc3c(c2)CN([C@H]2C[C@@H](N=C=S)C2)C3)cc1F,IC50,[1],74.2 nM
COc1ccc(-c2ccc(CO[C@H]3C[C@@H](N=C=S)C3)c(F)c2)cc1OC,Ratio,[12],7.97 10^5/M/s
same,IC50,[1],58.9 nM
"COc1ccc(-c2ccc(COC3C[C@@H](N=C=S)C3(C)C)nc2)cc1F (single isomer, unassigned)",IC50,[1],246 nM
"COc1ccc(-c2ccc(CO[C@H]3CC[C@@H](N=C=S)C3)nc2)cc1F (single isomer, unassigned)",IC50,[1],1450 nM
CS(=O)(=O)c1ccc(-c2ccc(C(=O)N[C@H]3C[C@@H](N=C=S)C3)nc2)cc1,inhibition,[11],41%
COc1ccc(-c2ccc(C(=O)N[C@]34C[C@](N=C=S)(C3)C4)c(F)c2)cc1,IC50,[1],1230 nM

# — ChEMBL document CHEMBL4834430, “Design and Structure-Activity Relationships of Isothiocyanates as Potent and Selective N-Acylethanolamine-Hydrolyzing Acid Amidase Inhibitors” (J Med Chem, 2021)
